Reference: ChEMBL document CHEMBL5223136, “Covalent drugs targeting histidine - an unexploited opportunity?” (RSC Med Chem, 2022)

Columns and labels:
[1] = Microsomal stability in human liver microsomes assessed as intrinsic clearance and measured upto 60 mins in presence of NADPH by LC-MS/MS analysis; type: ADME, Microsome; settings: read-out: CLH
[2] = Metabolic stability in human hepatocytes assessed as intrinsic clearance and measured upto 60 mins in presence of NADPH by LC-MS/MS analysis; type: ADME, cell-based, Hepatocyte; settings: read-out: CLH
[3] = Metabolic stability in human plasma assessed as half life and measured upto 240 mins by LC-MS/MS analysis; type: ADME, cell-free

half-life [3]	SMILES	CLint scaled [1]	CLint scaled [2]
–	O=C1CCC(N2Cc3ccc(OS(=O)(=O)F)cc3C2=O)C(=O)N1 (configuration not stated)	< 6.1 mL/min/kg	< 9.6 mL/min/kg
–	O=C1CCC(N2Cc3ccc(S(=O)(=O)F)cc3C2=O)C(=O)N1 (configuration not stated)	13.7 mL/min/kg	< 9.6 mL/min/kg
1.98 h	O=C1CCC(N2Cc3ccccc3C2=O)C(=O)N1 (configuration not stated)	< 6.1 mL/min/kg	< 9.6 mL/min/kg
